In brackets after ≈: the same amount, converted by molar mass.
Experiments:
bacteria = settings: background statement on the byproduct; cited from earlier work
Strep. pyog. 203 = assay: MIC, serial dilution on BHI agar (inocula replicating device); format: cell-based; settings: 18 hrs. at 37° C., read-out: Minimum Inhibitory Concentration (MIC)
Procedure: (§1) The procedure which is followed is the one recommended by the International Collaborative Study on Antibiotic Sensitivity Testing [Ericcson and Sherris, Acta. Pathologica et Microbiologia Scandinav, Supp. 217, Sections A and B: 64-68 (1971)], and employs brain heart infusion (BHI) agar and the inocula replicating device. Overnight growth tubes are diluted 100 fold for use as the standard inoculum (20,000-10,000 cells in approximately 0.002 ml. are placed on the agar surface; 20 ml. of BHI agar/dish). Twelve 2 fold dilutions of the test compound are employed, with initial concentration of the test drug being 200 mcg./ml. Single colonies are disregarded when reading plates after 18 hrs. at 37° C. The susceptibility (MIC) of the test organism is accepted as the lowest concentration of compound capable of producing complete inhibition of growth as judged by the naked eye. A comparison of the activity of 3"-epioleandomycin-Y 3",4"-carbonate and 4"-epioleandomycin-Y 3",4"-carbonate with that of parent oleandomycin-Y is recorded in the Table.

Staph. epi. 111 = assay: as above; format: cell-based; settings: 18 hrs. at 37° C., read-out: Minimum Inhibitory Concentration (MIC)
Procedure: as §1

Staph. aur. 5 = assay: as above; format: cell-based; settings: 18 hrs. at 37° C., read-out: Minimum Inhibitory Concentration (MIC)
Procedure: as §1

Staph. aur. 52 = assay: as above; format: cell-based; settings: 18 hrs. at 37° C., read-out: Minimum Inhibitory Concentration (MIC)
Procedure: as §1

Staph. aur. 400 = assay: as above; format: cell-based; settings: 18 hrs. at 37° C., read-out: Minimum Inhibitory Concentration (MIC)
Procedure: as §1

Strep. faec. 6 = assay: as above; format: cell-based; settings: 18 hrs. at 37° C., read-out: Minimum Inhibitory Concentration (MIC)
Procedure: as §1

Bac. sub. 1 = assay: as above; format: cell-based; settings: 18 hrs. at 37° C., read-out: Minimum Inhibitory Concentration (MIC)
Procedure: as §1

Strep. pneum. 2 = assay: as above; format: cell-based; settings: 18 hrs. at 37° C., read-out: Minimum Inhibitory Concentration (MIC)
Procedure: as §1

Past. mult. = assay: as above; format: cell-based; settings: 18 hrs. at 37° C., read-out: Minimum Inhibitory Concentration (MIC)
Procedure: as §1

MIC (Strep. pyog. 203) [µg/mL]	MIC (Staph. epi. 111) [µg/mL]	MIC (Staph. aur. 5) [µg/mL]	MIC (Staph. aur. 52) [µg/mL]	MIC (Staph. aur. 400) [µg/mL]	MIC (Strep. faec. 6) [µg/mL]	MIC (Bac. sub. 1) [µg/mL]	MIC (Strep. pneum. 2) [µg/mL]	MIC (Past. mult.) [µg/mL]	SMILES	antibacterial activity (in words) (bacteria)
3.12 (≈ 4.46 µM)	1.56 (≈ 2.23 µM)	3.12 (≈ 4.46 µM)	3.12 (≈ 4.46 µM)	6.25 (≈ 8.93 µM)	3.12 (≈ 4.46 µM)	0.78 (≈ 1.11 µM)	0.39 (≈ 0.557 µM)	50 (≈ 71.4 µM)	C[C@@H]1[C@@H](O[C@@H]2O[C@H](C)C[C@H](N(C)C)[C@H]2O)[C@@H](C)C[C@@]2(CO2)C(=O)[C@H](C)[C@@H](O)[C@@H](C)[C@@H](C)OC(=O)[C@H](C)[C@H]1O[C@H]1C[C@H]2OC(=O)O[C@H]2[C@H](C)O1 [IIa, 3"-epioleandomycin-Y 3",4"-carbonate]	–
3.12 (≈ 4.46 µM)	6.25 (≈ 8.93 µM)	12.5 (≈ 17.9 µM)	12.5 (≈ 17.9 µM)	12.5 (≈ 17.9 µM)	12.5 (≈ 17.9 µM)	3.12 (≈ 4.46 µM)	0.78 (≈ 1.11 µM)	–	C[C@@H]1[C@@H](O[C@@H]2O[C@H](C)C[C@H](N(C)C)[C@H]2O)[C@@H](C)C[C@@]2(CO2)C(=O)[C@H](C)[C@@H](O)[C@@H](C)[C@@H](C)OC(=O)[C@H](C)[C@H]1O[C@H]1C[C@@H]2OC(=O)O[C@@H]2[C@H](C)O1 [IIb, 4"-epioleandomycin-Y 3",4"-carbonate]	–

SMILES	MIC (Strep. pyog. 203) [µg/mL]	MIC (Staph. epi. 111) [µg/mL]	MIC (Staph. aur. 5) [µg/mL]	MIC (Staph. aur. 52) [µg/mL]	MIC (Staph. aur. 400) [µg/mL]	MIC (Strep. faec. 6) [µg/mL]	MIC (Bac. sub. 1) [µg/mL]	MIC (Strep. pneum. 2) [µg/mL]	MIC (Past. mult.) [µg/mL]	antibacterial activity (in words) (bacteria)
C[C@@H]1[C@@H](O[C@@H]2O[C@H](C)C[C@H](N(C)C)[C@H]2O)[C@@H](C)C[C@@]2(CO2)C(=O)[C@H](C)[C@@H](O)[C@@H](C)[C@@H](C)OC(=O)[C@H](C)[C@H]1O[C@H]1C[C@H](O)[C@@H](O)[C@H](C)O1 [I, O-demethyloleandomycin]	1.56 (≈ 2.32 µM)	6.25 (≈ 9.28 µM)	50 (≈ 74.2 µM)	50 (≈ 74.2 µM)	12.5 (≈ 18.6 µM)	6.25 (≈ 9.28 µM)	6.25 (≈ 9.28 µM)	0.78 (≈ 1.16 µM)	–	relatively low antibacterial activity

— patent US4316010A, “Cis-C3 "C4 "-carbonate derivatives of O-demethyloleandomycin and intermediates therefor” (Pfizer Inc., priority 1981, dated 1982)
